Experimental findings from ChEMBL document CHEMBL1134043, “Allosteric inhibition of fructose-1,6-bisphosphatase by anilinoquinazolines” (Bioorg Med Chem Lett, 2001) are described below.

What is called IC50 is the concentration that inhibits the measured activity by half.

One assay is filed under the species Oryctolagus cuniculus. Nature of the assay: Compound was evaluated for its concentration required to inhibit the rabbit liver F16BPase. Type of assay: functional.
Assay [1] addresses T1, Fructose-1,6-bisphosphatase 1 (Sus scrofa, UniProt P00636).
T1 sequence (P00636 whole entry): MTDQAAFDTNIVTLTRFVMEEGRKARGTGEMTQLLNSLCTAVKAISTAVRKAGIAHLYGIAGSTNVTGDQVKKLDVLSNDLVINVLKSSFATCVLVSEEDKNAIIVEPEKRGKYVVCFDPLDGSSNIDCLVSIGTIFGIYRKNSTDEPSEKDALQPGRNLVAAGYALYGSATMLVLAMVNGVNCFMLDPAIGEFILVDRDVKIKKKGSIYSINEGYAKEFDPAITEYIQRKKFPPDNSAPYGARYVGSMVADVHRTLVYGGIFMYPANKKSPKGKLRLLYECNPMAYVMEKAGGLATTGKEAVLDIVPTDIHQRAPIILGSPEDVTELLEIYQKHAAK
The experiment in a line: Compound was evaluated for its concentration required to inhibit the porcine kidney F16BPase.

Assay [2] concerns the target T2, Fructose-1,6-bisphosphatase 1 (Rattus norvegicus, UniProt P19112).
T2 sequence (P19112 whole entry): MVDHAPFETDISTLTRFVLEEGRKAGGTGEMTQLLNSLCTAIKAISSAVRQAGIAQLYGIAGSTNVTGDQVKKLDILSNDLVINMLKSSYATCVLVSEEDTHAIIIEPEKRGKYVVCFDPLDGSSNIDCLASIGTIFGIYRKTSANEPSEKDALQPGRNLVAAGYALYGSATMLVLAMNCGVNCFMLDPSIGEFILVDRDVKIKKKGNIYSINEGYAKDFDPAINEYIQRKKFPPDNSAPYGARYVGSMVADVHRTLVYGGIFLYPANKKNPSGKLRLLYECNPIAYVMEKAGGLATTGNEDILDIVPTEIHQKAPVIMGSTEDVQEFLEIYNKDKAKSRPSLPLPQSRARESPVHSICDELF
The experiment in a line: Compound was evaluated for its concentration required to inhibit the rat liver F16BPase.

In assay [3] the target is T3, Fructose-1,6-bisphosphatase 1 (Homo sapiens, UniProt P09467).
T3 sequence (P09467 whole entry): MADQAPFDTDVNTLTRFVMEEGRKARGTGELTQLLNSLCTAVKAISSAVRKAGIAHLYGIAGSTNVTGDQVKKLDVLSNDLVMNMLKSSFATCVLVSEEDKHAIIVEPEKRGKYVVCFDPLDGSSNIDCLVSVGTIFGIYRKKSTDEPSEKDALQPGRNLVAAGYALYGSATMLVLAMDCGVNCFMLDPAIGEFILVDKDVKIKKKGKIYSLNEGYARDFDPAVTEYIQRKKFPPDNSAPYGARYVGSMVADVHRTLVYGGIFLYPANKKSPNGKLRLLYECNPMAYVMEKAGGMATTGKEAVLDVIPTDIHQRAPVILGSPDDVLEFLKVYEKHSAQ
Nature of the assay: Concentration required to inhibit the human liver recombinant fructose-1,6-bisphosphatase.

For the compound `COc1cc2ncnc(Nc3cccc(Br)c3)c2cc1OC`, the IC50 (in the assay filed under Oryctolagus cuniculus; in assay [1]; in assay [2]) was over 10 µM each time.

Regarding `CCOc1cc2ncnc(Nc3cccc(F)c3)c2cc1OCC`, the IC50 in assay [3] was 9.2 µM.

Take `COc1cc2nc(C)nc(Nc3cccc(Br)c3)c2cc1OC`: the IC50 in assay [3] was found to be 4.5 µM.

In the case of `COc1cc2ncnc(Nc3ccc(F)c(Cl)c3)c2cc1OC`, the IC50 was 0.29 µM in assay [3], over 10 µM in the assay filed under Oryctolagus cuniculus, 0.34 µM in assay [1] and over 10 µM in assay [2].

On to `CCOc1cc2ncnc(Nc3ccc(C)c(Cl)c3)c2cc1OCC`, for which the IC50 in assay [3] is over 10 µM.

As for `O=C(O)c1ccc2c(Nc3cccc(Br)c3)ncnc2c1`, the IC50 in assay [3] is over 10 µM.

`CC(C)Oc1ccc2ncnc(Nc3cccc(Br)c3)c2c1`: the 50% inhibitory concentration (IC50) in assay [3] is over 10 µM.

For `C#Cc1cccc(Nc2ncnc3cc(OC)c(OC)cc23)c1`, the IC50 in assay [3] is 0.9 µM; in the assay filed under Oryctolagus cuniculus it was over 10 µM; in assay [1], 1.6 µM; in assay [2], over 10 µM.

Consider `CCOc1cc2nc(CN(CC)CC)nc(Nc3cccc(Br)c3)c2cc1OCC`, for which the IC50 in assay [3] is over 10 µM.

Take `CCOc1cc2nc(CN3CCOCC3)nc(Nc3cccc(Br)c3)c2cc1OCC`: the IC50 in assay [3] was over 10 µM.

`CCOc1cc2ncnc(Nc3cccc(Br)c3)c2cc1OCC`: the IC50 was 1.7 µM in assay [3], over 10 µM in the assay listed under Oryctolagus cuniculus, over 10 µM in assay [1] and over 10 µM in assay [2].

`CCN(CC)c1nc(Nc2cccc(Br)c2)c2cc(OC)c(OC)cc2n1`: the IC50 in assay [3] was over 10 µM.

For the compound `CCOc1cc2nc(-c3ccccc3)nc(Nc3cccc(Br)c3)c2cc1OCC`, the IC50 in assay [3] is over 10 µM.

Consider `CCOc1cc2nc(Cc3ccccc3)nc(Nc3cccc(Br)c3)c2cc1OCC`, for which the concentration for half-maximal inhibition (IC50) in assay [3] is over 10 µM.

`C#Cc1cccc(Nc2ncnc3cc(OCC)c(OCC)cc23)c1`: the IC50 in assay [3] came out at 2.4 µM.

Consider `CCCCOc1ccc2ncnc(Nc3cccc(Br)c3)c2c1`, for which the IC50 in assay [3] is over 10 µM.

In the case of `CCOc1cc2nc(CS(C)(=O)=O)nc(Nc3cccc(Br)c3)c2cc1OCC`, the concentration for half-maximal inhibition (IC50) in assay [3] was over 10 µM.

With `Nc1cc2c(Nc3cccc(Br)c3)ncnc2cc1Cl`, the half-maximal inhibitory concentration (IC50) in assay [3] worked out at 11.9 µM.

With `CCOc1cc2ncnc(Nc3ccc(Cl)c(Cl)c3)c2cc1OCC`, the IC50 in assay [3] is over 10 µM.

As to `CCOc1cc2ncnc(Nc3ccc(F)c(Cl)c3)c2cc1OCC`, the IC50 in assay [3] is 0.53 µM; in the assay listed under Oryctolagus cuniculus, over 10 µM; in assay [1], 3.1 µM; in assay [2], over 10 µM.

Turning to `Brc1cccc(Nc2ncnc3cc4ccccc4cc23)c1`, the half-maximal inhibitory concentration (IC50) in assay [3] came out at 7.5 µM.

For `CCOc1cc2nc(CC(C)C)nc(Nc3cccc(Br)c3)c2cc1OCC`, the IC50 in assay [3] is over 10 µM.

`COCCOc1cc2c(Nc3cccc(Br)c3)ncnc2cc1OC`: in assay [3], the IC50 amounted to 5.5 µM.

On to `COCCOc1cc2ncnc(Nc3cccc(Br)c3)c2cc1OCCOC`, for which the concentration for half-maximal inhibition (IC50) in assay [3] was over 10 µM.

As for `CCOc1cc2ncnc(Nc3cccc(Cl)c3)c2cc1OCC`, the IC50 in assay [3] was 1.6 µM; in the assay filed under Oryctolagus cuniculus, over 10 µM; in assay [1], 3.9 µM; in assay [2] it was over 10 µM.

For `COc1cc2ncnc(Nc3cccc(Br)c3)c2cc1[N+](=O)[O-]`, in assay [3], the IC50 is over 10 µM.

As for `CCOc1cc2ncnc(Nc3ccccc3)c2cc1OCC`, in assay [3], the IC50 is over 10 µM.

As to `C#Cc1cc(Nc2ncnc3cc(OC)c(OC)cc23)ccc1F`, the IC50 was 0.25 µM in assay [3], over 10 µM in the assay listed under Oryctolagus cuniculus, 0.77 µM in assay [1] and over 10 µM in assay [2].

Consider `COCCOc1ccc2ncnc(Nc3cccc(Br)c3)c2c1`, for which, in assay [3], the IC50 is 2.9 µM.

Regarding `CCOc1cc2ncnc(Nc3cccc(I)c3)c2cc1OCC`, in assay [3], the IC50 came to 2.1 µM.

On to `Brc1cccc(Nc2ncnc3cc4nc[nH]c4cc23)c1`, for which, in assay [3], the IC50 was found to be 4 µM.

Consider `O=[N+]([O-])c1cc2c(Nc3cccc(Br)c3)ncnc2cc1Cl`, for which the concentration for half-maximal inhibition (IC50) in assay [3] is over 10 µM.

With `CCOc1cc2ncnc(Nc3cccc(Br)c3)c2cc1[N+](=O)[O-]`, the IC50 in assay [3] stood at 3.6 µM.

Take `CCOc1cc2nc(CCl)nc(Nc3cccc(Br)c3)c2cc1OCC`: the half-inhibitory concentration (IC50) in assay [3] was over 10 µM.

For the compound `CCOc1cc2ncnc(Nc3cccc(C#N)c3)c2cc1OCC`, in assay [3], the IC50 is over 10 µM.

For the compound `COc1cc2ncnc(Nc3cccc(Cl)c3)c2cc1OC` [TYRPHOSTIN AG-1478], the IC50 was 1.3 µM in assay [3], over 10 µM in the assay filed under Oryctolagus cuniculus, over 10 µM in assay [1] and over 10 µM in assay [2].
